Source: ChEMBL document CHEMBL1201862, “PubChem BioAssay data set” (2004)
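48-hour exposure; five concentrations; linearly interpolated endpoints. The concentration for 50% growth inhibition is given as GI50.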 The source made the active and inactive calls. Rule as the data show it: active = GI50 up to about 1.1 µM and inactive = higher.

Tests used:
Test in all cases: inhibition of tumour cell growth, NCI panel, 48 h
MDA-MB-435 = system: MDA-MB-435
MOLT-4 = system: MOLT-4
CAKI-1 = system: CAKI-1
MDA-MB-231 = system: MDA-MB-231
UACC-62 = system: UACC-62
K562 = system: K562
SK-OV-3 = system: SK-OV-3
SNB-19 = system: SNB-19
MCF7 = system: MCF7
A549 = system: A549
HT-29 = system: HT-29
SN12C = system: SN12C
SNB-75 = system: SNB-75
HCT-15 = system: HCT-15
SR = system: SR
HL-60 = system: HL-60
LOX IMVI = system: LOX IMVI
U-251 = system: U-251
NCI/ADR-RES = system: NCI/ADR-RES
NCI-H226 = system: NCI-H226

Row | Compound | GI50 (MDA-MB-435) | GI50 (MOLT-4) | GI50 (CAKI-1) | GI50 (MDA-MB-231) | GI50 (UACC-62) | GI50 (K562) | GI50 (SK-OV-3) | GI50 (SNB-19) | GI50 (MCF7) | GI50 (A549) | GI50 (HT-29) | GI50 (SN12C) | GI50 (SNB-75) | GI50 (HCT-15) | GI50 (SR) | GI50 (HL-60) | GI50 (LOX IMVI) | GI50 (U-251) | GI50 (NCI/ADR-RES) | GI50 (NCI-H226)
1 | C=CC(=O)N1C/C(=C\c2ccccc2)C(=O)/C(=C/c2ccccc2)C1 | 0.53 µM (active) | 0.458 µM (active) | 2.83 µM (inactive) | 2 µM (inactive) | 1.19 µM (inactive) | 0.265 µM (active) | 2.58 µM (inactive) | 2.54 µM (inactive) | 0.5 µM (active) | 2.92 µM (inactive) | 0.467 µM (active) | 1.67 µM (inactive) | 3.24 µM (inactive) | 1.18 µM | 0.476 µM (active) | 0.71 µM (active) | 0.254 µM (active) | 0.877 µM (active) | 1.93 µM (inactive) | 3.85 µM (inactive)
2 | CC(=O)OCCN1c2ccccc2Sc2cnccc21 | > 10 µM (inactive) | > 10 µM (inactive) | > 10 µM (inactive) | > 10 µM (inactive) | > 10 µM (inactive) | > 10 µM (inactive) | > 10 µM (inactive) | > 10 µM (inactive) | > 10 µM (inactive) | > 10 µM (inactive) | > 10 µM (inactive) | > 10 µM (inactive) | 9.38 µM (inactive) | > 10 µM | > 10 µM (inactive) | > 10 µM (inactive) | > 10 µM (inactive) | > 10 µM (inactive) | > 10 µM (inactive) | > 10 µM (inactive)
3 | C=CO/N=[N+](\[O-])N(CC)CC | > 100 µM (inactive) | > 100 µM (inactive) | > 100 µM (inactive) | > 100 µM (inactive) | > 100 µM (inactive) | > 100 µM (inactive) | > 100 µM (inactive) | > 100 µM (inactive) | > 100 µM (inactive) | > 100 µM (inactive) | > 100 µM (inactive) | > 100 µM (inactive) | > 100 µM (inactive) | > 100 µM | > 100 µM (inactive) | > 100 µM (inactive) | > 100 µM (inactive) | > 100 µM (inactive) | > 100 µM (inactive) | > 100 µM (inactive)
4 | NCCCc1nonc1C(=O)O | > 100 µM (inactive) | > 100 µM (inactive) | > 100 µM (inactive) | > 100 µM (inactive) | > 100 µM (inactive) | > 100 µM (inactive) | > 100 µM (inactive) | > 100 µM (inactive) | > 100 µM (inactive) | > 100 µM (inactive) | > 100 µM (inactive) | > 100 µM (inactive) | > 100 µM (inactive) | > 100 µM | > 100 µM (inactive) | > 100 µM (inactive) | > 100 µM (inactive) | > 100 µM (inactive) | > 100 µM (inactive) | > 100 µM (inactive)
5 | CC1=NN(c2nc(N)nc(CBr)n2)C(C)(C)C1 | 11 µM (inactive) | 1.61 µM (inactive) | 1.47 µM (inactive) | 7.18 µM (inactive) | 7.28 µM (inactive) | 2.02 µM (inactive) | 17.3 µM (inactive) | 16.7 µM (inactive) | 2.47 µM (inactive) | 12.6 µM (inactive) | 4.98 µM (inactive) | 5.22 µM (inactive) | 9.75 µM (inactive) | 3.61 µM | 2.88 µM (inactive) | 0.975 µM (active) | 0.708 µM (active) | 6.76 µM (inactive) | 17.7 µM (inactive) | 2.61 µM (inactive)
6 | CC(C)(CN)SCc1ccccc1 | > 100 µM (inactive) | > 100 µM (inactive) | > 100 µM (inactive) | > 100 µM (inactive) | > 100 µM (inactive) | > 100 µM (inactive) | > 100 µM (inactive) | > 100 µM (inactive) | > 100 µM (inactive) | > 100 µM (inactive) | > 100 µM (inactive) | > 100 µM (inactive) | > 100 µM (inactive) | > 100 µM | > 100 µM (inactive) | > 100 µM (inactive) | > 100 µM (inactive) | > 100 µM (inactive) | > 100 µM (inactive) | > 100 µM (inactive)
7 | O=c1c2cc(S(=O)(=O)Nc3ccccc3Cl)ccc2ncn1NS(=O)(=O)c1ccc(Br)cc1 | > 37.5 µM (inactive) | > 37.5 µM (inactive) | > 37.5 µM (inactive) | > 37.5 µM (inactive) | > 37.5 µM (inactive) | 17.8 µM (inactive) | > 37.5 µM (inactive) | > 37.5 µM (inactive) | > 37.5 µM (inactive) | > 37.5 µM (inactive) | > 37.5 µM (inactive) | > 37.5 µM (inactive) | > 37.5 µM (inactive) | > 37.5 µM | > 37.5 µM (inactive) | > 37.5 µM (inactive) | > 37.5 µM (inactive) | > 37.5 µM (inactive) | > 37.5 µM (inactive) | > 37.5 µM (inactive)
8 | Nc1ncnc2c1ncn2CC(O)C(=O)O (stereo not given) | > 100 µM (inactive) | > 100 µM (inactive) | > 100 µM (inactive) | > 100 µM (inactive) | > 100 µM (inactive) | > 100 µM (inactive) | > 100 µM (inactive) | > 100 µM (inactive) | > 100 µM (inactive) | > 100 µM (inactive) | > 100 µM (inactive) | > 100 µM (inactive) | > 100 µM (inactive) | > 100 µM | > 100 µM (inactive) | > 100 µM (inactive) | > 100 µM (inactive) | > 100 µM (inactive) | > 100 µM (inactive) | > 100 µM (inactive)
9 | COc1cccc(C2CC(C)(N3CCCC3)Oc3cc4c(cc32)OCO4)c1O (stereo not given) | 4.39 µM (inactive) | 21.8 µM (inactive) | 31.7 µM (inactive) | 19.1 µM (inactive) | 22.1 µM (inactive) | 9.31 µM (inactive) | 29.6 µM (inactive) | 37.6 µM (inactive) | 39.1 µM (inactive) | 31.9 µM (inactive) | 19.1 µM (inactive) | 25.6 µM (inactive) | 15.5 µM (inactive) | 11.3 µM | 3.81 µM (inactive) | 15.4 µM (inactive) | 28.8 µM (inactive) | 25.1 µM (inactive) | 20.8 µM (inactive) | 19.1 µM (inactive)
10 | Cn1c(O)c(C(=O)Nc2ccc([N+](=O)[O-])cc2)c(=O)n(C)c1=S | 1.51 µM (inactive) | 3.08 µM (inactive) | 2.81 µM (inactive) | 2.54 µM (inactive) | 1.23 µM (inactive) | 3.53 µM (inactive) | 3.64 µM (inactive) | 2.16 µM (inactive) | 1.78 µM (inactive) | 3.42 µM (inactive) | 2.23 µM (inactive) | 3.13 µM (inactive) | 1.63 µM (inactive) | 2.13 µM | 3.63 µM (inactive) | 2.25 µM (inactive) | 2.69 µM (inactive) | 2.23 µM (inactive) | 2.79 µM (inactive) | 4.33 µM (inactive)
11 | C=C(C)C1CC/C(C)=C/CCC2(C)OC2CC/C(CO)=C\C1O (stereo not given) | 60 µM (inactive) | 43 µM (inactive) | > 100 µM (inactive) | > 100 µM (inactive) | 80 µM (inactive) | 42 µM (inactive) | > 100 µM (inactive) | > 100 µM (inactive) | 91.4 µM (inactive) | > 100 µM (inactive) | > 100 µM (inactive) | > 100 µM (inactive) | 45.7 µM (inactive) | > 100 µM | 36.9 µM (inactive) | 59.2 µM (inactive) | > 100 µM (inactive) | 98.4 µM (inactive) | > 100 µM (inactive) | > 100 µM (inactive)
12 | Cc1cn(S(=O)(=O)c2ccccc2)c2c(OCc3ccccc3)cc(NS(C)(=O)=O)cc12 | 9.64 µM (inactive) | 3.45 µM (inactive) | 72.3 µM (inactive) | 9.66 µM (inactive) | 17.9 µM (inactive) | 20.1 µM (inactive) | 40.9 µM (inactive) | 43.3 µM (inactive) | 6.98 µM (inactive) | 9.82 µM (inactive) | 4.42 µM (inactive) | 13.7 µM (inactive) | 22.9 µM (inactive) | 12.9 µM | 4.98 µM (inactive) | 4.52 µM (inactive) | 11.4 µM (inactive) | 10.6 µM (inactive) | 14.9 µM (inactive) | 16.1 µM (inactive)
13 | CCN(CC)CCCNc1nncc2cc3c([nH]c4ccc(OC)cc43)c(C)c12 | 10.8 µM (inactive) | 2.3 µM (inactive) | 11.5 µM (inactive) | 7.41 µM (inactive) | 17.4 µM (inactive) | 3.34 µM (inactive) | 9.64 µM (inactive) | 5.97 µM (inactive) | 2.56 µM (inactive) | 9.82 µM (inactive) | 3.4 µM (inactive) | 6.12 µM (inactive) | 9.59 µM (inactive) | 19.3 µM | 4.63 µM (inactive) | < 0.01 µM (active) | 3.84 µM (inactive) | 3.69 µM (inactive) | > 100 µM (inactive) | 7.41 µM (inactive)
14 | C[N+]1(CCC[N+]2(C)CC3C4C=CC(CC4)C3C2)CCOCC1 (stereo not given) | > 100 µM (inactive) | > 100 µM (inactive) | > 100 µM (inactive) | > 100 µM (inactive) | > 100 µM (inactive) | > 100 µM (inactive) | > 100 µM (inactive) | > 100 µM (inactive) | > 100 µM (inactive) | > 100 µM (inactive) | > 100 µM (inactive) | > 100 µM (inactive) | > 100 µM (inactive) | > 100 µM | > 100 µM (inactive) | > 100 µM (inactive) | > 100 µM (inactive) | > 100 µM (inactive) | > 100 µM (inactive) | > 100 µM (inactive)
